Each block holds one compound with its values, some of them ahead of it.
Key:
SF-1 = conditions: CV-1 cells; cited from earlier work
[1] = biological target: coactivator fragment (GST-coactivator fusion protein; the filing does not say which); assay: co-expression in E. coli, metal affinity purification of His-tagged LRH-1
human SF-1 = biological target: T1, human SF-1 (Homo sapiens, UniProt Q13285); assay: AlphaScreen coactivator (SRC-1/NCoA1) recruitment to His-tagged SF-1 LBD; assay type: biochemical; conditions: for dose-dependent NCoA1/SRC1 recruitment to SF-1: FIG. 7B, liposome-washed SF-1
T1 construct: For E. coli expression the SF-1 G219-T461 insert was cloned into a modified pET vector; made in house
T1 sequence (Q13285 219-461): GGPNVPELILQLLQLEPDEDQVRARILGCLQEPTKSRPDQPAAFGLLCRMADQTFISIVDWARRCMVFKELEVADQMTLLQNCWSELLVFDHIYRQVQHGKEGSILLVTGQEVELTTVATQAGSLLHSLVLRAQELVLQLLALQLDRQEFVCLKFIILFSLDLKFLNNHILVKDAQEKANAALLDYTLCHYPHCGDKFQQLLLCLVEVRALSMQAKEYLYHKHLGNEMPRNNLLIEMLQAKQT
T1 sequence (Q15788 595-780 partner limits assumed): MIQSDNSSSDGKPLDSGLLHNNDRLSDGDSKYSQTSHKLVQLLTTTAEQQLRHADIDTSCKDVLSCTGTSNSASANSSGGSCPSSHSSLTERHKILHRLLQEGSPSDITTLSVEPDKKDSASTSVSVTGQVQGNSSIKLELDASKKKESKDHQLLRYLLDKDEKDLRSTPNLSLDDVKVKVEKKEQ
From the text: However, the lipids binding SF-1 could be partially extracted by washing the proteins with liposomes prepared using phosphatidylcholine (C22 acyl chain length). It was reasoned that such liposomes with long acyl chains could act as a sink for extracted lipids, without binding the receptors themselves. After such washing the coactivator binding by SF-1 was diminished, but could be activated by the addition of phosphatidylethanolamine (FIG. 5A). The PE 16:0 16:1 observed in the crystal structure is unavailable commercially, so it could not be readily obtained. […] (Parks et al., Science, 1999, 284:1365-8; Makishima et al., Science, 1999, 284:1362-5.)
A variety of different methods for detecting molecular interactions can be used. For example, Alpha Screen technology (Perkin Elmer) is suitable to detect the interaction of the receptor with the coactivator fragment. In this case it is suitable to engineer the ligand-binding domain of the SF-1 and LRH-1 as an N-terminally HIS-tagged protein that can bind the acceptor bead (containing Nickel moieties that will bind the HIS tag). The coactivator fragment can be synthesized containing a biotin moiety that will bind the donor bead. In the presence of ‘activating’ compounds the association of the receptor with the co-regulator may be strengthened, whereas the presence of ‘inhibitory’ compounds may destabilize this interaction. Libraries of chemicals, or derivatives, can be quantified for their effects on co-regulator binding.
Thus, in an exemplary implementation, the Alpha Screen Histidine detection (Nickel chelate) kit (Perkin Elmer) is used to detect binding between His-tagged receptor LBD and biotinylated coactivator peptides or fragments. The assay is performed in Costar 384-well white polystyrene plates (Coming Inc.), in a total volume of 20 μL. Compounds to be tested for their abilities to modulate the interaction of nuclear receptor with coactivator are added to the 384-well plate in 1 μL of DMSO or buffer in advance of addition of the receptor and coactivator proteins.
Reactions are initiated in 15 μl containing 50 nM His-tagged nuclear receptor and […] biotin-tagged coactivator fragment, using buffer containing 50 mM Bis-tris HCl (pH 7.0), 50 mM KCl, 0.05% Tween 20, 1 mM DTT, 0.1% BSA. Other buffer variations can be tested to optimize the largest difference in signals obtained using the apo receptor and receptor bound to compounds already determined to bind and activate the receptor. After the protein solutions are added to the compounds, the plate is sealed and incubated at room temp for 2 hours. After incubation, a 5 μL mixture containing streptavidin donor beads (15 μg/ml) and Ni-chelate acceptor beads (15 μg/ml) are added from the Nickel chelate kit. Plates are resealed and incubated in the dark for 2 hours at room temperature and then read in an AlphaFusion reader set at a read time of 1 s/well.
A signal is produced by the binding of coactivator to nuclear receptor that can be detected by the AlphaFusion reader (the binding brings the acceptor beads into close proximity of the donor beads, which allows the acceptor beads to detect the singlet oxygens produced by the donor beads, causing them to emit a light detected by the instrument). Data analysis can be performed using GraphPad Prism (GraphPad Software, Inc.). […]

Compound: C[C@@H](CO)CCC[C@@H](C)[C@H]1CC[C@H]2[C@@H]3CC=C4C[C@@H](O)CC[C@]4(C)[C@H]3CC[C@]12C [26-hydroxycholesterol]
SF-1-dependent transcriptional activity (SF-1): modest increase

Compound: C[C@@H](CO)CCC[C@@H](C)[C@H]1CC[C@H]2[C@@H]3CC=C4C[C@@H](O)CC[C@]4(C)[C@H]3CC[C@]12C [27-hydroxycholesterol]
SF-1-dependent transcriptional activity (SF-1): modest increase

Compound: C[C@H](CCCC(C)(C)O)[C@H]1CC[C@H]2[C@@H]3CC=C4C[C@@H](O)CC[C@]4(C)[C@H]3CC[C@]12C [25-hydroxycholesterol]
SF-1-dependent transcriptional activity (SF-1): modest increase

Other lines, results leading:

decrease in coactivator fragment binding compared to the LRH-1-WT protein [1]: 70%
Compound: His-tagged human LRH-1 LBD (S251-A495) E488K (from UniProt O00482-2) (receptor)

coactivator binding by SF-1 after liposome washing (human SF-1; SF-1 washed with phosphatidylcholine liposomes, then lipid added): activated
Compound: phosphatidylethanolamine

activation of wild-type SF-1 to bind NCoA1 as measured by AlphaScreen (human SF-1; 50 μM compound, FIG. 7A): activates | dose-dependent NCoA1/SRC1 recruitment to SF-1 (human SF-1): Dose-dependent | dose-dependent NCoA1/SRC1 recruitment to SF-1 (human SF-1; listed as PE 18:3 18:3): dose-dependent increase | EC50 (human SF-1; SF-1 protein washed with phosphatidylcholine liposomes, biotinylated GST-SRC-1 fragment): 30 µM
Compound: CC/C=C\C/C=C\C/C=C\CCCCCCCC(=O)OC[C@H](COP(=O)(O)OCCN)OC(=O)CCCCCCC/C=C\C/C=C\C/C=C\CC [PE-18:3, 1,2-dilinolenoyl-sn-glycero-3-phosphoethanolamine]

Source: US20060160135A1, “SF-1 and LRH-1 modulator development” (priority 2004, published 2006)
